How the values were obtained:
[1] = test system: barnyardgrass; assay: Test B pre-/postemergence herbicide test; type: in vivo, Echinochloa crus-galli; conditions: for Barnyardgrass plant response rating: postemergence
Procedure, shortened: (§1)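 Response was scored visually 13 to 15 days after treatment against untreated greenhouse controls, 0 meaning no effect and 100 complete control. Formulations (solvent mixture plus surfactant) went onto soil after planting, onto foliage of 1- to 4-leaf plants, and onto 2-leaf plants in a flooded paddy set including rice and barnyardgrass.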

[2] = test system: Surinam grass; assay: Test B pre-/postemergence herbicide test; type: in vivo, Urochloa decumbens; conditions: for Surinam Grass plant response rating: scale 0 (no effect) to 100 (complete control)
Procedure, shortened: (§2)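 Formulation: non-phytotoxic solvent mix with surfactant. Timing: preemergence on seed and postemergence on 2–18 cm plants, applied concurrently. Readout after 13–15 d greenhouse: visual 0–100 control rating against controls.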

[3] = test system: cocklebur; assay: Test B pre-/postemergence herbicide test; type: in vivo, Xanthium strumarium; conditions: for Cocklebur plant response rating: postemergence
Procedure, shortened: as §1

[4] = test system: corn; assay: Test B pre-/postemergence herbicide test; type: in vivo, Zea mays; conditions: for Corn plant response rating: postemergence
Procedure, shortened: as §2

[5] = test system: large crabgrass; assay: Test B pre-/postemergence herbicide test; type: in vivo, Digitaria sanguinalis; conditions: for Crabgrass, Large plant response rating: postemergence
Procedure, shortened: as §2

[6] = test system: giant foxtail; assay: Test B pre-/postemergence herbicide test; type: in vivo, Setaria faberi; conditions: for Foxtail, Giant plant response rating: postemergence
Procedure, shortened: as §2

[7] = test system: lambsquarters; assay: Test B pre-/postemergence herbicide test; type: in vivo, Chenopodium album; conditions: for Lambsquarters plant response rating: scale 0 (no effect) to 100 (complete control)
Procedure, shortened: as §2

[8] = test system: morningglory; assay: Test B pre-/postemergence herbicide test; type: in vivo, Ipomoea coccinea; conditions: for Morningglory plant response rating: scale 0 (no effect) to 100 (complete control)
Procedure, shortened: as §1

[9] = test system: pigweed; assay: Test B pre-/postemergence herbicide test; type: in vivo, Amaranthus retroflexus; conditions: for Pigweed plant response rating: scale 0 (no effect) to 100 (complete control)
Procedure, shortened: as §2

[10] = test system: velvetleaf; assay: Test B pre-/postemergence herbicide test; type: in vivo, Abutilon theophrasti; conditions: for Velvetleaf plant response rating: scale 0 (no effect) to 100 (complete control)
Procedure, shortened: as §2

[11] = test system: blackgrass; assay: Test B postemergence herbicide test; type: in vivo, Alopecurus myosuroides; conditions: postemergence
Procedure, shortened: (§3)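 Visual control ratings, 0–100 versus untreated controls, taken after 13 to 15 days in the greenhouse. Blackgrass received a postemergence spray at the 1- to 4-leaf stage (2–18 cm); ducksalad, umbrella sedge and barnyardgrass were flooded-paddy treated at 2 leaves.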

[12] = test system: wheat; assay: Test B postemergence herbicide test; type: in vivo, Triticum aestivum; parameters: key to Wheat plant response rating: 0 = no effect, 100 = complete control
Procedure, shortened: (§4)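 Plants grow to 1- to 4-leaf stage (2–18 cm) for postemergence spraying, or to 2-leaf stage for the paddy test. Formulated compound is applied. Greenhouse holding lasts 13–15 days. Response is scored visually relative to controls, 0 no effect to 100 complete control; a dash means no result.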

[13] = test system: wild oat; assay: Test B postemergence herbicide test; type: in vivo, Avena fatua; conditions: scale 0 (no effect) to 100 (complete control)
Procedure, shortened: as §4

[14] = test system: rice; assay: Test B flooded paddy test; type: in vivo, Oryza sativa; conditions: 1000 g ai/ha, scale 0 to 100 (0 no effect, 100 complete control)
Procedure, shortened: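 Scale 0–100: zero equals no visible effect, 100 complete control, judged by eye relative to controls. Timing: 13 to 15 days in greenhouse post-treatment. Growth stage at spraying: two leaves (paddy) or one to four leaves, 2–18 cm (postemergence).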

[15] = test system: small flower umbrella sedge; assay: Test B flooded paddy test; type: in vivo, Cyperus difformis; conditions: 1000 g ai/ha, scale 0 to 100 (0 no effect, 100 complete control)
Procedure, shortened: as §3

[16] = test system: ducksalad; assay: Test B flooded paddy test; type: in vivo, Heteranthera limosa; conditions: 1000 g ai/ha, scale 0 to 100 (0 no effect, 100 complete control)
Procedure, shortened: as §3

[17] = test system: barnyardgrass; assay: Test B flooded paddy test; type: in vivo, Echinochloa crus-galli; conditions: 1000 g ai/ha, scale 0 to 100 (0 no effect, 100 complete control)
Procedure, shortened: as §3

[18] = test system: rice; assay: Test C flooded paddy test; type: in vivo, Oryza sativa
Procedure, shortened: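 Injury scored visually against controls on a 0 (no effect) to 100 (complete control) scale, 12 to 14 days after treatment in greenhouse. Flooded paddy plants treated at 2-leaf stage; postemergence plants at 1- to 4-leaf stage, 2 to 18 cm tall.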

[19] = test system: smallflower umbrella sedge; assay: Test C flooded paddy test; type: in vivo, Cyperus difformis
[20] = test system: ducksalad; assay: Test C flooded paddy test; type: in vivo, Heteranthera limosa
[21] = test system: barnyardgrass; assay: Test C flooded paddy test; type: in vivo, Echinochloa crus-galli
Procedure, shortened: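 Visual rating, 0 (no effect) to 100 (complete control), vs. controls at 12–14 d in greenhouse. Postemergence: 1–4-leaf plants, 2–18 cm. Paddy: flooded, barnyardgrass at 2-leaf stage.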

[22] = 125 g ai/ha, 0 is no effect, 100 is complete control, preemergence
[23] = 125 g ai/ha, visual rating, scale 0 (no effect) to 100 (complete control)
[24] = 500 g ai/ha, scale 0 to 100, 0 is no effect, 100 is complete control
[25] = 125 g ai/ha, visual rating, postemergence
[26] = 125 g ai/ha, scale 0 to 100 (0 no effect, 100 complete control)
[27] = 250 g ai/ha, scale of 0 to 100, 0 is no effect, 100 is complete control
[28] = 500 g ai/ha, visual rating after 12 to 14 days, scale 0 to 100 (0 no effect, 100 complete control)

SMILES: C=CCNC(=O)c1ccc(F)c(NC(=O)c2nn(C(C)(C)C)nc2CC)c1 [Compound 383]
- Plant response rating (0 to 100 scale), Barnyardgrass [1, 22]: 10
- Barnyardgrass plant response rating [1, 23]: 0
- Barnyardgrass plant response rating [1, 24]: 0
- Plant response rating (0 to 100 scale), Surinam Grass [2, 22]: 10
- Surinam Grass plant response rating [2, 25]: 10
- Surinam Grass plant response rating ([2]; Postemergence, 500 g ai/ha): 20
- Plant response rating (0 to 100 scale), Cocklebur [3, 22]: 0
- Cocklebur plant response rating [3, 23]: 0
- Cocklebur plant response rating [3, 24]: 10
- Plant response rating (0 to 100 scale), Corn [4, 22]: 0
- Corn plant response rating [4, 23]: 0
- Corn plant response rating [4, 24]: 0
- Plant response rating (0 to 100 scale), Crabgrass, Large [5, 22]: 50
- Crabgrass, Large plant response rating [5, 23]: 0
- Crabgrass, Large plant response rating [5, 24]: 10
- Plant response rating (0 to 100 scale), Foxtail, Giant [6, 22]: 10
- Foxtail, Giant plant response rating [6, 23]: 0
- Foxtail, Giant plant response rating [6, 24]: 0
- Plant response rating (0 to 100 scale), Lambsquarters [7, 22]: 40
- Lambsquarters plant response rating [7, 25]: 20
- Lambsquarters plant response rating ([7]; Postemergence, 500 g ai/ha): 30
- Plant response rating (0 to 100 scale), Morningglory [8, 22]: 0
- Morningglory plant response rating [8, 25]: 10
- Morningglory plant response rating ([8]; Postemergence, 500 g ai/ha): 10
- Plant response rating (0 to 100 scale), Pigweed [9, 22]: 0
- Pigweed plant response rating [9, 25]: 20
- Pigweed plant response rating ([9]; Postemergence, 500 g ai/ha): 30
- Plant response rating (0 to 100 scale), Velvetleaf [10, 22]: 10
- Velvetleaf plant response rating [10, 25]: 10
- Velvetleaf plant response rating ([10]; Postemergence, 500 g ai/ha): 40
- Blackgrass plant response rating [11, 23]: 0
- Blackgrass plant response rating [11, 24]: 20
- Wheat plant response rating ([12]; 125 g ai/ha, visual rating, scale 0 (no effect) to 100 (complete control), postemergence): 0
- Wheat plant response rating ([12]; 500 g ai/ha, scale 0 to 100, 0 no effect, 100 complete control, preemergence): 10
- Wheat plant response rating ([12]; Postemergence, 500 g ai/ha, scale 0 (no effect) to 100 (complete control)): 0
- Oat, Wild plant response rating [13, 25]: 0
- Oat, Wild plant response rating ([13]; Postemergence, 500 g ai/ha): 20
- Rice plant response rating [14]: 60
- Sedge, Umbrella plant response rating [15]: 80
- Ducksalad plant response rating [16]: 70
- Barnyardgrass plant response rating [17]: 30
- Rice plant response rating ([18]; 62 g ai/ha, scale 0 to 100): 0
- Rice plant response rating [18, 26]: 5
- Rice plant response rating [18, 27]: 35
- Plant response rating, Rice [18, 28]: 50
- Sedge, Umbrella plant response rating ([19]; 62 g ai/ha, scale 0 to 100): 0
- Sedge, Umbrella plant response rating [19, 26]: 45
- Sedge, Umbrella plant response rating [19, 27]: 65
- Plant response rating, Sedge, Umbrella [19, 28]: 90
- Ducksalad plant response rating ([20]; 62 g ai/ha, scale 0 to 100): 0
- Ducksalad plant response rating [20, 26]: 45
- Ducksalad plant response rating [20, 27]: 45
- Plant response rating, Ducksalad [20, 28]: 95
- Barnyardgrass plant response rating ([21]; 62 g ai/ha, scale 0 to 100 (0 no effect, 100 complete control)): 0
- Barnyardgrass plant response rating [21, 26]: 0
- Barnyardgrass plant response rating [21, 27]: 15
- Plant response rating, Barnyardgrass [21, 28]: 40

— patent publication US20060069132A1, “Azolecarboxamide herbicides” (priority 2004, published 2006)
